This is an account of results in PMC8635623, “A click chemistry approach to pleuromutilin derivatives, evaluation of anti-MRSA activity and elucidation of binding mode by surface plasmon resonance and molecular docking” (Journal of Enzyme Inhibition and Medicinal Chemistry, 2021).

What all share (assay): MIC/MBC by broth micro dilution
The test system of one assay is S. aureus 144. Format: cell-based. To be noted: Staphylococcus aureus, S. aureus 144 (clinical strain); for MIC: 37 °C, 24 h; for MBC: lowest concentration reducing viable counts by 99.9%. On the procedure:
(§1) All the synthesised 1,2,3-triazole linked pleuromutilin analogues were screened for in vitro antibacterial activities against methicillin-resistant S. aureus (ATCC 43300), S. aureus (ATCC 29213), and two clinical strains of S. aureus (AD3 and 144, isolated from Guangdong Province, China). The MICs and MBCs of the synthesised pleuromutilin derivatives along with pleuromutilin and tiamulin used as the reference antibacterial drugs, were determined by the broth micro dilution methods according to the Clinical and Laboratory Standards Institute (CLSI)[18].
(§2) The MIC of these novel pleuromutilin derivatives against methicillin-resistant S. aureus (ATCC 43300), S. aureus (ATCC 29213), S. aureus (AD3) and S. aureus (144) were determined by using pleuromutilin and tiamulin as positive control. MIC values were determined by the broth micro dilution methods in accordance with the Clinical and Laboratory Standards Institute (2012). Stock solutions of these compounds were dissolved in methanol to make a stock solution with a concentration of 1280 µg/mL. The working solutions (640 µg/mL) were obtained by diluting stock solutions in sterile Mueller-Hinton (MH) broth. The bacterial solution and solutions of these compounds with a final concentration of 0.016–32 µg/mL were distributed into 96-well plates, with a total volume of 200 µL. Three parallel experiments for each compound concentration. The plates were incubated at 37 °C for 24 h.
(§3) MBC values were determined according to CLSI (2003) and previously report with slightly modification[18]^,[28]^,[31]. After obtaining the MIC results, the 96-well plates were incubated at 37 °C for 24 h. 100 µL of the bacterial solution from the wells with no visible growth was inoculated on MH agar plates. The MH agar plates were incubated at 37 °C for colony count. The MBC was determined as the lowest concentration of compound, which reduces the viable counts for 99.9%.

The next assay deals with S. aureus ATCC 29213. Format: cell-based. To be noted: Staphylococcus aureus; for MIC: ATCC29213, 37 °C, 24 h; for MBC: ATCC29213, lowest concentration reducing viable counts by 99.9%. As to the method: as §1, §2, §3
The test system of a further assay is S. aureus AD3. Format: cell-based. To be noted: Staphylococcus aureus, S. aureus AD3 (clinical strain); for MIC: 37 °C, 24 h; for MBC: lowest concentration reducing viable counts by 99.9%. On the procedure: as §1, §2, §3
Another assay deals with MRSA ATCC 43300. The class given is cell-based, methicillin-resistant S. aureus. To be noted: Staphylococcus aureus; for MIC: 37 °C, 24 h, read-out: MIC; for MBC: lowest concentration reducing viable counts by 99.9%. On the procedure: as §1, §2, §3

Each structure is given as a SMILES string. Values after ≈ are worked out from the molar mass of the structure shown.

On to `C=C[C@]1(C)C[C@@H](OC(=O)Cn2cc(CN3CCN(c4ccccc4O)CC3)nn2)[C@]2(C)[C@H](C)CC[C@]3(CCC(=O)[C@H]32)[C@@H](C)[C@@H]1O` [Compound 65, 22-(2-(4-(4-(2-Hydroxyphenyl)-piperazin-1-yl)-methyl)-1H-1,2,3-triazol-1-yl)-22-deoxy pleuromutilin], for which the MIC in the assay on S. aureus 144 was found to be 8 µg/mL (≈ 12.9 µM); in the assay with S. aureus ATCC 29213 it was 8 µg/mL (≈ 12.9 µM); in the assay on S. aureus AD3, 4 µg/mL (≈ 6.45 µM); in the assay on MRSA ATCC 43300, 4 µg/mL (≈ 6.45 µM). The MBC against S. aureus 144 came out at 16 µg/mL (≈ 25.8 µM); in the assay with S. aureus ATCC 29213 it was 8 µg/mL (≈ 12.9 µM); in the assay with S. aureus AD3, 8 µg/mL (≈ 12.9 µM); against MRSA ATCC 43300, 8 µg/mL (≈ 12.9 µM).
Take `C=C[C@]1(C)C[C@@H](OC(=O)Cn2cc(CN3CCN(c4ccccc4)CC3)nn2)[C@]2(C)[C@H](C)CC[C@]3(CCC(=O)[C@H]32)[C@@H](C)[C@@H]1O` [Compound 49, 22-(2-(4-(4-Phenyl-piperazin-1-yl)-methyl)-1H-1,2,3-triazol-1-yl)-22-deoxy pleuromutilin]: the MIC with S. aureus 144 amounted to 8 µg/mL (≈ 13.2 µM); with S. aureus ATCC 29213, 8 µg/mL (≈ 13.2 µM); with S. aureus AD3 it was 8 µg/mL (≈ 13.2 µM); with MRSA ATCC 43300 it was 4 µg/mL (≈ 6.62 µM). Also, the MBC was determined as 16 µg/mL (≈ 26.5 µM) against S. aureus 144, 8 µg/mL (≈ 13.2 µM) in the assay on S. aureus ATCC 29213, 16 µg/mL (≈ 26.5 µM) in the assay with S. aureus AD3 and 4 µg/mL (≈ 6.62 µM) in the assay with MRSA ATCC 43300.
As to `C=C[C@]1(C)C[C@@H](OC(=O)Cn2cc(CN3CCN(c4ccc(C)cc4)CC3)nn2)[C@]2(C)[C@H](C)CC[C@]3(CCC(=O)[C@H]32)[C@@H](C)[C@@H]1O` [Compound 52, 22-(2-(4-(4-(p-Tolyl)-piperazin-1-yl)-methyl)-1H-1,2,3-triazol-1-yl)-22-deoxy pleuromutilin], the MIC was 8 µg/mL (≈ 12.9 µM) against S. aureus 144, 8 µg/mL (≈ 12.9 µM) against S. aureus ATCC 29213, 8 µg/mL (≈ 12.9 µM) with S. aureus AD3 and 4 µg/mL (≈ 6.47 µM) with MRSA ATCC 43300. Moreover, the MBC stood at 16 µg/mL (≈ 25.9 µM) in the assay on S. aureus 144, 8 µg/mL (≈ 12.9 µM) against S. aureus ATCC 29213, 32 µg/mL (≈ 51.8 µM) against S. aureus AD3 and 8 µg/mL (≈ 12.9 µM) with MRSA ATCC 43300.
Consider `C=C[C@]1(C)C[C@@H](OC(=O)CO)[C@]2(C)[C@H](C)CC[C@]3(CCC(=O)[C@H]32)[C@@H](C)[C@@H]1O` [Pleuromutilin, pleuromutilin], for which the MIC worked out at 2 µg/mL (≈ 5.28 µM) with S. aureus 144, 4 µg/mL (≈ 10.6 µM) against S. aureus ATCC 29213, 2 µg/mL (≈ 5.28 µM) with S. aureus AD3 and 2 µg/mL (≈ 5.28 µM) in the assay on MRSA ATCC 43300. In addition, the MBC against S. aureus 144 turned out to be 4 µg/mL (≈ 10.6 µM); in the assay on S. aureus ATCC 29213, 8 µg/mL (≈ 21.1 µM); against S. aureus AD3 it was 4 µg/mL (≈ 10.6 µM); against MRSA ATCC 43300, 4 µg/mL (≈ 10.6 µM).
Take `C=C[C@]1(C)C[C@@H](OC(=O)Cn2cc(CN3CCN(c4ccc(F)cc4)CC3)nn2)[C@]2(C)[C@H](C)CC[C@]3(CCC(=O)[C@H]32)[C@@H](C)[C@@H]1O` [Compound 55, 22-(2-(4-(4-(4-Fluorophenyl)-piperazin-1-yl)-methyl)-1H-1,2,3-triazol-1-yl)-22-deoxy pleuromutilin]: the MIC in the assay with S. aureus 144 worked out at 8 µg/mL (≈ 12.9 µM); with S. aureus ATCC 29213, 8 µg/mL (≈ 12.9 µM); in the assay with S. aureus AD3 it was 8 µg/mL (≈ 12.9 µM); with MRSA ATCC 43300, 4 µg/mL (≈ 6.43 µM). In addition, the MBC with S. aureus 144 was 32 µg/mL (≈ 51.5 µM); in the assay on S. aureus ATCC 29213 it was 8 µg/mL (≈ 12.9 µM); in the assay with S. aureus AD3, 16 µg/mL (≈ 25.7 µM); against MRSA ATCC 43300, 4 µg/mL (≈ 6.43 µM).
Regarding `C=C[C@]1(C)C[C@@H](OC(=O)Cn2cc(CN3CCN(c4cccc(Cl)c4)CC3)nn2)[C@]2(C)[C@H](C)CC[C@]3(CCC(=O)[C@H]32)[C@@H](C)[C@@H]1O` [Compound 57, 22-(2-(4-(4-(3-Chlorophenyl)-piperazin-1-yl)-methyl)-1H-1,2,3-triazol-1-yl)-22-deoxy pleuromutilin], the MIC in the assay on S. aureus 144 is 8 µg/mL (≈ 12.5 µM); in the assay with S. aureus ATCC 29213, 8 µg/mL (≈ 12.5 µM); in the assay with S. aureus AD3 it was 16 µg/mL (≈ 25.1 µM); with MRSA ATCC 43300 it was 4 µg/mL (≈ 6.27 µM). Further, the MBC with S. aureus 144 was 16 µg/mL (≈ 25.1 µM); with S. aureus ATCC 29213, 16 µg/mL (≈ 25.1 µM); in the assay on S. aureus AD3, 32 µg/mL (≈ 50.1 µM); with MRSA ATCC 43300, 8 µg/mL (≈ 12.5 µM).

Broadly, the MIC is the lowest concentration that inhibits growth of the organism. Usually MBC stands for the smallest concentration meeting the test's criterion for killing. A low value points to greater bactericidal potency.
